Data reported in publication PMC11475570, “Impact of Optimized Ku–DNA Binding Inhibitors on the Cellular and In Vivo DNA Damage Response” (Cancers, 2024).
Values joined by “and” are separate entries in the source; they are usually repeats but may differ in a detail not shown here. Equal entries are not always repeated. One block for each molecule: values may come before it.

How the values were obtained:
[1] = biological target: T1, Ku 70/80 (Homo sapiens, UniProt P12956+P13010); test: EMSA Ku–DNA binding inhibition; settings: 32P-labeled 30-bp duplex DNA, purified Ku 70/80, mean and SD of triplicate
T1 construct: made in house; host or cells: baculovirus-infected Sf9 cells
T1 sequence (P12956 whole entry): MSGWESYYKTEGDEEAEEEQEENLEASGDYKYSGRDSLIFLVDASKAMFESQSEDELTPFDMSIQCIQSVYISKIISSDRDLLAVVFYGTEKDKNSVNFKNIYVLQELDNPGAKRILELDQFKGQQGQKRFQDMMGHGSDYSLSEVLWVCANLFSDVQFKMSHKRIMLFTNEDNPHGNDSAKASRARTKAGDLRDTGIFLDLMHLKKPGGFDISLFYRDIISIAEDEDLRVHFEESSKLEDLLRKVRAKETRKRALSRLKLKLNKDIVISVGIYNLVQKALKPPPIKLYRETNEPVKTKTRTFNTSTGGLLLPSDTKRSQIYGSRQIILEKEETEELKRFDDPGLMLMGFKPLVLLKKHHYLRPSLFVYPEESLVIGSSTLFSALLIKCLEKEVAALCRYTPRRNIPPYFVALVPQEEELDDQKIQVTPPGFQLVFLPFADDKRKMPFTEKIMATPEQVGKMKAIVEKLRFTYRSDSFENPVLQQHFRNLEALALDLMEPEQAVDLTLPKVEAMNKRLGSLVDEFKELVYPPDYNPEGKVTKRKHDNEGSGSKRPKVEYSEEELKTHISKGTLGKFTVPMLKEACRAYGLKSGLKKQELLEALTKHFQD
T1 sequence (P13010 whole entry): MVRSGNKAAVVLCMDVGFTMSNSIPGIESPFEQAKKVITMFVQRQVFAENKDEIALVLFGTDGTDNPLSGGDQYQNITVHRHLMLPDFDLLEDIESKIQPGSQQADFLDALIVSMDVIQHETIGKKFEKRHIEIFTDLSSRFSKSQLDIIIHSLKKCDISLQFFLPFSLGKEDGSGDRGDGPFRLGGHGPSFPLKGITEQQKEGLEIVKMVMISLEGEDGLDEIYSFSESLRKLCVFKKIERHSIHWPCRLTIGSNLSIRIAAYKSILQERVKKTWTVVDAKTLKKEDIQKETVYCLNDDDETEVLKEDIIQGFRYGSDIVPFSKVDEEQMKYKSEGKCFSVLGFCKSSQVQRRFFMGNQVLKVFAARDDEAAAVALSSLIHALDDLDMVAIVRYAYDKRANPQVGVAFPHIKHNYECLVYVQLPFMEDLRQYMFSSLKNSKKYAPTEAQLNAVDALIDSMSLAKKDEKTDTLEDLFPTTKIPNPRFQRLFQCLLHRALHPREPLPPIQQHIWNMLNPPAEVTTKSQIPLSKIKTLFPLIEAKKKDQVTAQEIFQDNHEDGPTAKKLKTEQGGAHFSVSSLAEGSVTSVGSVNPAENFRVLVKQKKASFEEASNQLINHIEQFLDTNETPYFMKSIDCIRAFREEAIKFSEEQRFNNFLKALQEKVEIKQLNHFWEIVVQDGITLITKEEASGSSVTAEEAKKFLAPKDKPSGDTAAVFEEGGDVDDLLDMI
Procedure: (§1) The inhibitory activity of Ku-DBis on Ku-DNA binding was evaluated in vitro using Electrophoretic mobility shift assays (EMSA) with a [^32P]-labeled 30-bp duplex DNA and purified Ku 70/80. Kinase assays were performed to measure the DNA-dependent transfer of [^32P] from γ-[^32P] ATP to a synthetic p53-based peptide substrate, both as previously described. Both EMSA and DNA-PK inhibitor titration assays were performed in triplicate. Data were fit to standard binding curves using GraphPad Prism to determine IC50 values.

[2] = biological target: T2, DNA-PK (Homo sapiens, UniProt P12956+P13010); test: DNA-PK kinase assay (phosphate transfer to p53 peptide); assay type: biochemical; settings: for IC50: DNA-dependent phosphate transfer to synthetic p53 peptide, purified DNA-PK, mean and SD of triplicate
T2 construct: made in house; Ku 70/80 from baculovirus-infected Sf9 cells
T2 sequence (P12956 whole entry): as the sequence (P12956 whole entry) above
T2 sequence (P13010 whole entry): as the sequence (P13010 whole entry) above
Procedure: as §1

[3] = tested on: H460 NSCLC cells; test: Cellular uptake by HPLC; assay type: in vitro ADME, Human; settings: H460, 10 µM, media with 10% FBS
Procedure: Cellular uptake was evaluated in two NSCLC cell lines, H460 and A549. Cells were seeded into 6-well plates at a density of 1 × 10^6 cells per well and cultured as monolayers at 37 °C and 5% CO2 for 18–24 h. Ku-DBis were added to the media at a concentration of 10 µM and incubation continued for the times indicated. Media were removed, cells were washed 3 times with PBS, 1 mL of methanol was added to each well, and cells were agitated overnight at 4 °C. The methanol was collected, and wells were washed with an additional 1 mL of methanol that was then pooled with the original. The methanol extracts were then dried under vacuum, resuspended in methanol, and analyzed by HPLC using a 250 × 4.6 and 5 μm C-18 reverse phase column with 1% TFA mobile phase in acetonitrile (ACN) gradient elution. Absorption was monitored at 425 nm, HPLC peaks were quantified using a standard curve, and picomoles of compound per million cells was calculated.

[4] = tested on: H23; test: CCK-8 cell viability, single agent; assay type: cell-based, Human
Procedure: (§2) Cell metabolism/viability was assessed using a mitochondrial metabolism assay (CCK-8) kit (Cell Counting Kit-8, Cat: CK04, Dojindo Laboratories, Rockville, MD, USA) as previously described. Briefly, cells were seeded at a density of 3 × 10^3 cells per well in 96-well plates and allowed to adhere and stretch for 18–24 h prior to treatment. Cells were pre-treated with Ku-DBi for 24 h before bleomycin treatments. Subsequently, cells were incubated for an additional 48 h at 37 °C after which CCK-8 assay was performed. The absorbance of the formed formazan product in each well was measured at 450 nm and compared to vehicle-treated controls to determine percent cell viability. The results represent the average and SEM of triplicate determinations.

[5] = tested on: H1299; test: CCK-8 cell viability, single agent; assay type: cell-based, Human
Procedure: as §2

[6] = tested on: MDA-436; test: CCK-8 cell viability, single agent; assay type: cell-based, Human
Procedure: as §2

[7] = tested on: H460; test: CCK-8 cell viability, single agent; assay type: cell-based, Human
Procedure: as §2

[8] = tested on: A549; test: CCK-8 cell viability, single agent; assay type: cell-based, Human
Procedure: as §2

[9] = tested on: MDA-468; test: CCK-8 cell viability, single agent; assay type: cell-based, Human
Procedure: as §2

[10] = tested on: MDA-MB-436; test: Bleomycin-sensitization activity, CCK-8; assay type: cell-based, Human; settings: BRCA1 mutant MDA-MB-436
Procedure: as §2

[11] = tested on: MDA-MB-468; test: Bleomycin-sensitization activity, CCK-8; assay type: cell-based, Human; settings: BRCA1 wild-type MDA-MB-468
Procedure: as §2

- IC50 [1]: 2.4 µM and 2.41 µM
- DNA-PK inhibitory activity, fold more active than fluoro-modified counterparts (3618 and 3649) [2]: ~ 2.5 fold
- IC50 [2]: 0.77 ± 0.24 µM
SMILES: COc1cccc(NC(=O)c2cc(-c3ccc(/C=C4\C(=O)N(c5cccc(C(=O)O)c5)c5ccccc54)o3)ccc2OC)c1 [GL-3395]

- IC50 [1]: 3.55 ± 0.4 µM
- IC50 [2]: 1.74 ± 0.61 µM
SMILES: COc1cccc(NC(=O)c2cc(-c3ccc(/C=C4\C(=O)N(c5cccc(C(=O)O)c5)c5ccccc54)o3)ccc2F)c1 [GL-3649]

- IC50 [1]: 3.36 ± 0.89 µM
- Cellular uptake, fold more efficient than methoxy-derivatives 3395 and 3649 [3]: ~ 3 fold
- IC50 [2]: 1.72 ± 0.15 µM
SMILES: O=C(O)c1cccc(N2C(=O)/C(=C\c3ccc(-c4ccc(F)c(C(=O)Nc5cccc(OC(F)(F)F)c5)c4)o3)c3ccccc32)c1 [GL-3618]

- IC50 ([5]; H1299, CCK-8, 72 h, mean ± SD): 4 ± 0.9 µM
- IC50 ([7]; H460, CCK-8, 72 h, mean ± SD): 4.8 ± 1 µM
- IC50 ([8]; A549, CCK-8, 72 h, mean ± SD): ~4.5 µM
SMILES: O=c1cc(N2CCOCC2)oc2c(-c3cccc4c3sc3ccccc34)cccc12 [NU-7441, reference compound]
- Cell Viability at 25 µM ([4]; 25 µM): 4.8 ± 0.5 %ctrl
- Fold more sensitive than the other NSCLC lines ([4]; ATM-null H23 cells): ~ 2 fold
- IC50 ([4]; H23, CCK-8, 72 h, mean ± SD): 2.2 ± 0.1 µM
- Cell Viability at 25 µM ([5]; 25 µM): 17.8 ± 5.4 %ctrl
- Cell Viability at 25 µM ([6]; 25 µM): 17.8 ± 1.3 %ctrl
- IC50 ([6]; MDA-436, CCK-8, 72 h, mean ± SD): 8.1 ± 0.9 µM
- Cell Viability at 25 µM ([7]; 25 µM): 8.3 ± 0.1 %ctrl
- Cell Viability at 25 µM ([8]; 25 µM): 13.6 ± 1.4 %ctrl
- Cell Viability at 25 µM ([9]; 25 µM): 4.1 ± 0.9 %ctrl
- IC50 ([9]; MDA-468, CCK-8, 72 h, mean ± SD): 5.2 ± 0.4 µM
- Change in sensitivity to bleomycin [10]: decrease in sensitivity to bleomycin
- Change in sensitivity to bleomycin [11]: increase in sensitivity
